This is an account of results in patent US9499554B2, “Anti-influenza compositions and methods” (priority 2013, dated 2016).

In brackets after ≈: the same amount, converted by molar mass.

This experiment deals with A/NJ/15/2007 (H1N1-H274Y). The experiment is classed as cell-based, Influenza A.

On to `Nc1ncnc2c([C@@H]3N[C@H](CO)[C@@H](O)[C@H]3O)c[nH]c12` [compound 1, (2S,3S,4R,5R)-2-(4-Amino-5H-pyrrolo[3,2-d]pyrimidin-7-yl)-5-(hydroxymethyl)pyrrolidine-3,4-diol], for which the “EC50, antiviral activity in MDCK cells” value stood at 1.39 µg/mL (≈ 5.24 µM).
